In patent publication US20190225650A1, “PEPTIDOMIMETIC MACROCYCLES AND USE THEREOF IN REGULATING HIF1ALPHA” (AILERON THERAPEUTICS, INC., priority 2013, published 2019):
Bridge positions count the residues as written; N and C are the ends. Square brackets hold non-standard residues; d marks the D form. Peptide text beside a SMILES is read from it. R8 = C=CCCCCCC[C@@](C)(N)C(=O)O; S5 = C=CCCC[C@](C)(N)C(=O)O; Nle = CCCC[C@H](N)C(=O)O

Legend:
[1] = molecular target: T1, flag-tagged HIF1α (AA 786-826) / His6-tagged p300 (AA 323-423) complex (Homo sapiens, UniProt Q09472); experiment: HIF1α p300 displacement assay (TR FRET, +CHAPS); type: binding; settings: read-out: IC50 (nM) (HIF1α_p300 Displacement + CHAPS)
T1 construct: His6-tagged p300 (AA 323-423); made in house; host or cells: E. coli (pETDuet vector)
Summary of the method: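 The co-expressed flag-HIF1α (786-826)/His6-p300 (323-423) complex, purified from E. coli with 0.1 mM ZnSO4, was used at 300 nM final with competitor peptides for 1 h at room temperature. Buffer was 150 mM NaCl, 20 mM HEPES pH 7.4, 7.5 mM CHAPS and 1 mM DTT. Anti-Flag-K (0.5 μM) and anti-His-D2 (4 nM) were then added for 2 h, and IC50s were fitted from the TR-FRET ratio.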

HRE-bla ME-180 cells [2] = experiment: Reporter gene assay (HRE-bla ME-180 HIF reporter, GeneBLAzer); type: cell-based, human; settings: for EC50: 24 hour normoxia
Summary of the method: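 A FRET β-lactamase readout of HIF transcription was used. After compound treatment in 0.3% DMSO/media under normoxic conditions, 20 μl of 6× LiveBLAzer-FRET B/G (CCF4-AM) substrate was added. Plates sat 3 hr at room temperature in the dark and were read at 409 Ex/460Em and 409Ex/530Em on a Synergy 2. Inhibition was compared against DMSO vehicle controls, with chetomin as positive control.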

HRE-bla ME-180 cells [3] = experiment: Cell proliferation assay (viability, MTT, 1% FBS); type: cell-based, human
Summary of the method: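 ME-180 cells (2×10^4/well) in Opti-MEM with 1% FBS were pretreated 16 h under normoxia (21% O2), vehicle 0.5% DMSO final. Incubation then continued under normoxia or hypoxia (1% O2); viable cells quantified by MTT-type CellTiter 96 assay.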

SMILES	IC50 [1] [nM]	18 h Avg % max inhibition at top conc (HIF Rptr-24 hrs normoxia) (μM) (HRE-bla ME-180 cells [2])	EC50 (HRE-bla ME-180 cells [2]) [µM]	Viability 1% FBS AVG (MTT V3-24 hr Normoxia) (μM) (HRE-bla ME-180 cells [3])
CCCC[C@H](NC(=O)[C@H](CCC(=O)O)NC(=O)[C@@H](NC(=O)[C@@H](NC(=O)[C@H](CC(N)=O)NC(=O)[C@]1(C)CCCC=CCCC[C@](C)(NC(=O)[C@H](CCC(=O)O)NC(=O)[C@H](CC(=O)O)NC(=O)[C@@H](NC(=O)[C@H](Cc2ccccc2)NC(C)=O)[C@@H](C)CC)C(=O)N[C@@H](C(C)C)C(=O)N[C@@H](CC(C)C)C(=O)N[C@@H](CCCC)C(=O)N1)C(C)C)[C@@H](C)CC)C(=O)N[C@@H](C)C(=O)N[C@@H](CC(C)C)C(N)=O [SP-143] (Ac-FIDE[S5]VL[Nle][S5]NVIE[Nle]AL-NH2; staple 5-9)	400 to 700	++++ (≥50: ++++)	5 to 15	++ (≤5 but <15: ++)
CCCC[C@H](NC(=O)[C@H](Cc1ccccc1)NC(=O)[C@@H](NC(=O)[C@H](CCC(N)=O)NC(=O)[C@H](CCC(N)=O)NC(=O)[C@H](CC(N)=O)NC(=O)[C@@H](NC(=O)[C@H](Cc1ccccc1)NC(C)=O)[C@@H](C)CC)C(C)C)C(=O)N[C@@]1(C)CCCC=CCCC[C@@](C)(C(=O)N[C@@H](CCCC)C(=O)N[C@@H](C)C(=O)N[C@@H](CC(C)C)C(=O)N[C@@H](CC(C)C)C(N)=O)NC(=O)[C@H]([C@@H](C)CC)NC(=O)[C@H](C(C)C)NC(=O)[C@H](CC(C)C)NC1=O [SP-248] (Ac-FINQQVF[Nle][S5]LVI[S5][Nle]ALL-NH2; staple 9-13)	> 700	+++ (≤25 but <50: +++)	> 30	++++ (≥30: ++++)
CCCC[C@@H]1NC(=O)[C@H](CC(C)C)NC(=O)[C@H](C(C)C)NC(=O)[C@@](C)(NC(=O)[C@H](CCC(=O)O)NC(=O)[C@H](CC(=O)O)NC(=O)[C@@H](NC(=O)[C@H](Cc2ccccc2)NC(C)=O)[C@@H](C)CC)CCCC=CCCCC2(CCCC=CCCC[C@](C)(C(=O)N[C@@H](CCCC)C(=O)N[C@@H](C)C(=O)N[C@@H](CC(C)C)C(N)=O)NC(=O)[C@H]([C@@H](C)CC)NC(=O)[C@H](C(C)C)NC(=O)[C@H](CC(N)=O)NC2=O)NC1=O (stereo partly drawn) [SP-210]	200 to 400	++++ (≥50: ++++)	5 to 15	+ (<5: +)
CCCC[C@H](NC(=O)[C@H](Cc1ccccc1)NC(=O)[C@@H](NC(=O)[C@H](CCC(=O)O)NC(=O)[C@H](CCC(N)=O)NC(=O)[C@H](CC(=O)O)NC(=O)[C@@H](NC(=O)[C@H](Cc1ccccc1)NC(C)=O)[C@@H](C)CC)C(C)C)C(=O)N[C@@]1(C)CCCC=CCCC[C@@](C)(C(=O)N[C@@H](CCCC)C(=O)N[C@@H](C)C(=O)N[C@@H](CC(C)C)C(=O)N[C@@H](CC(=O)O)C(=O)N[C@@H](CCCNC(=N)N)C(=O)N[C@H](C(N)=O)[C@@H](C)CC)NC(=O)[C@H]([C@@H](C)CC)NC(=O)[C@H](C(C)C)NC(=O)[C@H](CC(C)C)NC1=O [SP-269] (Ac-FIDQEVF[Nle][S5]LVI[S5][Nle]ALDRI-NH2; staple 9-13)	400 to 700	+++ (≤25 but <50: +++)	15 to 30	++++ (≥30: ++++)
CC[C@H](C)[C@H](NC(=O)[C@H](CCCNC(=N)N)NC(=O)[C@H](CC(=O)O)NC(=O)[C@H](CC(C)C)NC(=O)[C@H](C)NC(=O)[C@H](CCSC)NC(=O)[C@]1(C)CCCC=CCCC[C@](C)(NC(=O)[C@H](CCSC)NC(=O)[C@H](CC(C)C)NC(=O)[C@@H](NC(=O)[C@H](Cc2c[nH]cn2)NC(=O)[C@H](CCC(=O)O)NC(=O)[C@H](CC(N)=O)NC(=O)[C@@H](NC(=O)[C@H](Cc2ccccc2)NC(C)=O)[C@@H](C)CC)C(C)C)C(=O)N[C@@H](CC(C)C)C(=O)N[C@@H](C(C)C)C(=O)N[C@@H]([C@@H](C)CC)C(=O)N1)C(N)=O [SP-286] (Ac-FINEHVLM[S5]LVI[S5]MALDRI-NH2; staple 9-13)	> 700	++ (≤10 but <25: ++)	> 30	++++ (≥30: ++++)
CCCC[C@H](NC(=O)[C@H](CCC(=O)O)NC(=O)[C@]1(C)CCCC=CCCCCCC[C@@](C)(NC(=O)[C@H](CCC(=O)O)NC(=O)[C@H](CC(=O)O)NC(=O)[C@@H](NC(=O)[C@H](CC(N)=O)NC(=O)[C@@H](NC(=O)[C@]2(C)CCCC=CCCCCCC[C@@](C)(NC(=O)[C@H](C)NC(=O)CNC(=O)[C@H](CCC(N)=O)NC(=O)[C@H](CC(C)C)NC(=O)[C@H](CC(C)C)NC(C)=O)C(=O)N[C@@H](CC(C)C)C(=O)N[C@@H](CC(C)C)C(=O)N[C@@H](CCCNC(=N)N)C(=O)N[C@@H](C)C(=O)N[C@@H](CC(C)C)C(=O)N[C@@H](CC(=O)O)C(=O)N2)C(C)C)[C@@H](C)CC)C(=O)N[C@@H](C(C)C)C(=O)N[C@@H](CC(C)C)C(=O)N[C@@H](CCCC)C(=O)N[C@@H](CO)C(=O)N[C@@H](CC(C)C)C(=O)N[C@@H](C(C)C)C(=O)N1)C(N)=O [SP-353] (Ac-LLQGA[R8]LLRALD[S5]VNIDE[R8]VL[Nle]SLV[S5]E[Nle]-NH2; staple 6-13, 19-26)	≤ 200	+++ (≤25 but <50: +++)	> 30	++++ (≥30: ++++)
CCCC[C@H](NC(=O)[C@H](Cc1ccccc1)NC(=O)[C@@H](NC(=O)[C@H](C)NC(=O)[C@H](CCC(N)=O)NC(=O)[C@H](CC(=O)O)NC(=O)[C@@H](NC(=O)[C@H](Cc1ccccc1)NC(C)=O)[C@@H](C)CC)C(C)C)C(=O)N[C@@]1(C)CCCC=CCCC[C@@](C)(C(=O)N[C@@H](CCC(N)=O)C(=O)N[C@@H](C)C(=O)N[C@@H](CC(C)C)C(=O)N[C@@H](CC(C)C)C(N)=O)NC(=O)[C@H]([C@@H](C)CC)NC(=O)[C@H](C(C)C)NC(=O)[C@H](Cc2c[nH]cn2)NC1=O [SP-260] (Ac-FIDQAVF[Nle][S5]HVI[S5]QALL-NH2; staple 9-13)	> 700	++++ (≥50: ++++)	≤ 5	+ (<5: +)
CC[C@H](C)[C@H](NC(=O)[C@H](CC(N)=O)NC(=O)[C@@H](NC(=O)[C@H](CCC(N)=O)NC(=O)[C@H](CC(=O)O)NC(=O)[C@H](CC(C)C)NC(=O)[C@H](C)NC(=O)[C@H](CCCNC(=N)N)NC(=O)[C@H](CC(C)C)NC(=O)[C@H](CC(C)C)NC(=O)[C@H](CCC(=O)O)NC(=O)[C@H](CCC(=O)O)NC(=O)CNC(=O)[C@H](CCC(N)=O)NC(=O)[C@H](CC(C)C)NC(=O)[C@H](CC(C)C)NC(C)=O)C(C)C)C(=O)N[C@@H](CC(=O)O)C(=O)N[C@@H](CCC(=O)O)C(=O)N[C@@]1(C)CCCC=CCCC[C@@](C)(C(=O)N[C@@H](CC(C)C)C(=O)N[C@H](C(=O)N[C@H](C(=O)N[C@@H](CCC(=O)O)C(=O)N[C@@H](CCSC)C(N)=O)[C@@H](C)CC)C(C)C)NC(=O)[C@H](CCSC)NC(=O)[C@H](CC(C)C)NC(=O)[C@H](C(C)C)NC1=O [SP-318] (Ac-LLQGEELLRALDQVNIDE[S5]VLM[S5]LVIEM-NH2; staple 19-23)	400 to 700	+ (<10: +)	> 30	++++ (≥30: ++++)
CCCC[C@H](NC(=O)[C@H](Cc1ccccc1)NC(=O)[C@@H](NC(=O)[C@H](CCC(=O)O)NC(=O)[C@H](CCC(=O)O)NC(=O)[C@H](CC(=O)O)NC(=O)[C@@H](NC(=O)[C@H](Cc1ccccc1)NC(C)=O)[C@@H](C)CC)C(C)C)C(=O)N[C@@]1(C)CCCC=CCCC[C@@](C)(C(=O)N[C@@H](C)C(=O)N[C@@H](C)C(=O)N[C@@H](CC(C)C)C(=O)N[C@@H](CC(C)C)C(N)=O)NC(=O)[C@H]([C@@H](C)CC)NC(=O)[C@H](C(C)C)NC(=O)[C@H](CC(C)C)NC1=O [SP-247] (Ac-FIDEEVF[Nle][S5]LVI[S5]AALL-NH2; staple 9-13)	400 to 700	+++ (≤25 but <50: +++)	15 to 30	++++ (≥30: ++++)
